The target in one assay is TEM-1 WT (Escherichia coli, UniProt P62593).
The subject of assay [1] is E. coli KA797 cells carrying pUK21 with TEM-1 Y105G. The format is cell-based, Escherichia coli. The settings on record: antibiotic alone.
Assay [2] deals with E. coli KA797 cells carrying pUK21 with TEM-1 Y105R. The format is cell-based, Escherichia coli. The settings on record: antibiotic alone.
For assay [3], the system named is E. coli KA797 cells carrying pUK21 with CTX-M-14 Y105R. In kind it is cell-based, Escherichia coli. The settings on record: antibiotic alone.
The test system of assay [4] is E. coli KA797 cells carrying pUK21 with BlaC I105G. The format is cell-based, Escherichia coli. The settings on record: antibiotic alone.
Assay [5] concerns E. coli KA797 cells carrying pUK21 with BlaC I105R. The format is cell-based, Escherichia coli. The settings on record: antibiotic alone.

In brackets after ≈: the same amount, converted by molar mass.

Chain of TEM-1 WT (P62593 24-286 limits assumed): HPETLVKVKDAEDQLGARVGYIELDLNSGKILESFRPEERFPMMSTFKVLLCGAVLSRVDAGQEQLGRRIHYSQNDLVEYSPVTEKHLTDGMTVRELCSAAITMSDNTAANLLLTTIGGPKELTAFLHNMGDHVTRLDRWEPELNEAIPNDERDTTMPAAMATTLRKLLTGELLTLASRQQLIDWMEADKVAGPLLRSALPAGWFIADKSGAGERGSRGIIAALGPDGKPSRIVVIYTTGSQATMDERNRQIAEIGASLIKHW

As to `CC1(C)S[C@@H]2[C@H](NC(=O)[C@H](N)c3ccccc3)C(=O)N2[C@H]1C(=O)O` [ampicillin], on TEM-1 WT (phosphate buffer pH 6.4, 25 °C), the kcat was found to be 2359 ± 16 s⁻¹. For the same molecule, the Km at TEM-1 WT (read-out: KM^app, phosphate buffer pH 6.4, 25 °C) amounted to 72 ± 1 µM.
Consider `CC1(C)S[C@@H]2[C@H](NC(=O)C(C(=O)O)c3ccccc3)C(=O)N2[C@H]1C(=O)O` (stereo partly shown) [carbenicillin], for which the MIC in assay [1] was 16,000 μg/ml; in assay [2] it was 4000 µg/mL (≈ 10.6 mM); in assay [3], 2000 µg/mL (≈ 5.29 mM); in assay [4] it was 800 µg/mL (≈ 2.11 mM); in assay [5] it was 1600 µg/mL (≈ 4.23 mM).
